According to the supplement of paper PMC10307832:

Legend:
Test in all cases: relative viability (nuclei count vs DMSO), 5 days (fraction); higher = more cells survive
[1] = compound: Cc1cnc(CNC(=O)c2c(=O)c3ccc(N4CCCN(C)CC4)nc3n3c2sc2ccccc23)cn1 [CX-5461] + Nc1nc2[nH]cc(CCc3ccc(C(=O)N[C@@H](CCC(=O)O)C(=O)O)cc3)c2c(=O)[nH]1 [Pemetrexed] (partner 0.2 µM)
How it was run: (§1)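 Medians of duplicate plates are given as relative viability. That measure is the nuclei count in treated wells divided by the count in vehicle wells. Counts were taken on 4× images of lung cancer cell lines in 1536-well plates, 5 days after pin-tool dosing the day after seeding with one drug alone or a fixed anchor-drug dose plus five library-drug doses (not always all listed) in √10 steps.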

[2] = compound: O=C(Nc1cc(C(F)(F)F)cc(C(F)(F)F)c1)c1cc(Cl)ccc1O [IMD-0354] + COc1cccc2cc(-c3nc([C@H]4CC[C@H](C(=O)O)CC4)n4ncnc(N)c34)[nH]c12 [OSI-027] (partner 0.5 µM)
How it was run: as §1

[3] = compound: O=C(Nc1cc(C(F)(F)F)cc(C(F)(F)F)c1)c1cc(Cl)ccc1O [IMD-0354] + Nc1ncn([C@H]2C[C@H](O)[C@@H](CO)O2)c(=O)n1 [Decitabine] (partner 2 µM)
How it was run: as §1

[4] = compound: O=C(Nc1cc(C(F)(F)F)cc(C(F)(F)F)c1)c1cc(Cl)ccc1O [IMD-0354] + O=C(c1cc(Cc2n[nH]c(=O)c3ccccc23)ccc1F)N1CCN(C(=O)C2CC2)CC1 [Olaparib] (partner 8 µM)
How it was run: as §1

Cell Line: NCI-H1734
- relative viability ([1]; first compound 0.01 µM): 0.404
- relative viability ([1]; first compound 0.03162 µM): 0.435
- relative viability ([1]; first compound 0.1 µM): 0.419
- relative viability ([1]; first compound 0.3162 µM): 0.39
- relative viability ([1]; first compound 1 µM): 0.432
- relative viability ([2]; first compound 0.04 µM): 0.625
- relative viability ([2]; first compound 0.1265 µM): 0.662
- relative viability ([2]; first compound 0.4 µM): 0.44
- relative viability ([2]; first compound 1.265 µM): 0.281
- relative viability ([2]; first compound 4 µM): 0.137
- relative viability ([3]; first compound 0.04 µM): 0.513
- relative viability ([3]; first compound 0.1265 µM): 0.491
- relative viability ([3]; first compound 0.4 µM): 0.467
- relative viability ([3]; first compound 1.265 µM): 0.389
- relative viability ([3]; first compound 4 µM): 0.213
- relative viability ([4]; first compound 0.04 µM): 0.608
- relative viability ([4]; first compound 0.1265 µM): 0.68
- relative viability ([4]; first compound 0.4 µM): 0.465
- relative viability ([4]; first compound 1.265 µM): 0.421
- relative viability ([4]; first compound 4 µM): 0.175

Cell Line: LXF-289
- relative viability ([1]; first compound 0.01 µM): 0.867
- relative viability ([1]; first compound 0.03162 µM): 0.933
- relative viability ([1]; first compound 0.1 µM): 0.847
- relative viability ([1]; first compound 1 µM): 0.574
- relative viability ([2]; first compound 0.04 µM): 0.871
- relative viability ([2]; first compound 0.1265 µM): 0.772
- relative viability ([2]; first compound 0.4 µM): 0.492
- relative viability ([2]; first compound 1.265 µM): 0.34
- relative viability ([2]; first compound 4 µM): 0.115
- relative viability ([3]; first compound 0.04 µM): 0.375
- relative viability ([3]; first compound 0.1265 µM): 0.312
- relative viability ([3]; first compound 0.4 µM): 0.393
- relative viability ([3]; first compound 1.265 µM): 0.356
- relative viability ([3]; first compound 4 µM): 0.201
- relative viability ([4]; first compound 0.04 µM): 0.959
- relative viability ([4]; first compound 0.1265 µM): 0.945
- relative viability ([4]; first compound 0.4 µM): 0.783
- relative viability ([4]; first compound 1.265 µM): 0.418
- relative viability ([4]; first compound 4 µM): 0.0925

Cell Line: H3255
- relative viability ([1]; first compound 0.01 µM): 0.608
- relative viability ([1]; first compound 0.03162 µM): 0.564
- relative viability ([1]; first compound 0.1 µM): 0.553
- relative viability ([1]; first compound 0.3162 µM): 0.557
- relative viability ([1]; first compound 1 µM): 0.57
- relative viability ([2]; first compound 0.04 µM): 0.549
- relative viability ([2]; first compound 0.1265 µM): 0.59
- relative viability ([2]; first compound 0.4 µM): 0.585
- relative viability ([2]; first compound 1.265 µM): 0.488
- relative viability ([2]; first compound 4 µM): 0.302
- relative viability ([3]; first compound 0.04 µM): 0.52
- relative viability ([3]; first compound 0.1265 µM): 0.595
- relative viability ([3]; first compound 0.4 µM): 0.504
- relative viability ([3]; first compound 1.265 µM): 0.529
- relative viability ([3]; first compound 4 µM): 0.3
- relative viability ([4]; first compound 0.04 µM): 0.49
- relative viability ([4]; first compound 0.1265 µM): 0.541
- relative viability ([4]; first compound 0.4 µM): 0.435
- relative viability ([4]; first compound 1.265 µM): 0.37
- relative viability ([4]; first compound 4 µM): 0.318

Cell Line: 201T
- relative viability ([1]; first compound 0.01 µM): 0.324
- relative viability ([1]; first compound 0.03162 µM): 0.302
- relative viability ([1]; first compound 0.1 µM): 0.329
- relative viability ([1]; first compound 0.3162 µM): 0.318
- relative viability ([1]; first compound 1 µM): 0.318
- relative viability ([2]; first compound 0.04 µM): 0.596
- relative viability ([2]; first compound 0.1265 µM): 0.882
- relative viability ([2]; first compound 1.265 µM): 0.553
- relative viability ([2]; first compound 4 µM): 0.175
- relative viability ([3]; first compound 0.04 µM): 0.797
- relative viability ([3]; first compound 0.1265 µM): 0.807
- relative viability ([3]; first compound 0.4 µM): 0.851
- relative viability ([3]; first compound 1.265 µM): 0.828
- relative viability ([3]; first compound 4 µM): 0.331
- relative viability ([4]; first compound 0.04 µM): 0.872
- relative viability ([4]; first compound 0.1265 µM): 0.833
- relative viability ([4]; first compound 0.4 µM): 0.532
- relative viability ([4]; first compound 1.265 µM): 0.849
- relative viability ([4]; first compound 4 µM): 0.291

Cell Line: NCI-H2126
- relative viability ([1]; first compound 0.01 µM): 0.697
- relative viability ([1]; first compound 0.03162 µM): 0.713
- relative viability ([1]; first compound 0.1 µM): 0.687
- relative viability ([1]; first compound 0.3162 µM): 0.672
- relative viability ([1]; first compound 1 µM): 0.634
- relative viability ([2]; first compound 0.04 µM): 0.752
- relative viability ([2]; first compound 0.1265 µM): 0.609
- relative viability ([2]; first compound 0.4 µM): 0.594
- relative viability ([2]; first compound 1.265 µM): 0.588
- relative viability ([2]; first compound 4 µM): 0.524
- relative viability ([3]; first compound 0.04 µM): 0.526
- relative viability ([3]; first compound 0.1265 µM): 0.59
- relative viability ([3]; first compound 0.4 µM): 0.641
- relative viability ([3]; first compound 1.265 µM): 0.594
- relative viability ([3]; first compound 4 µM): 0.306
- relative viability ([4]; first compound 0.04 µM): 1
- relative viability ([4]; first compound 0.1265 µM): 0.908
- relative viability ([4]; first compound 0.4 µM): 0.68
- relative viability ([4]; first compound 1.265 µM): 0.512
- relative viability ([4]; first compound 4 µM): 0.364

Cell Line: HOP-62
- relative viability ([1]; first compound 0.01 µM): 0.236
- relative viability ([1]; first compound 0.03162 µM): 0.384
- relative viability ([1]; first compound 0.1 µM): 0.297
- relative viability ([1]; first compound 0.3162 µM): 0.28
- relative viability ([1]; first compound 1 µM): 0.321
- relative viability ([2]; first compound 0.04 µM): 0.954
- relative viability ([2]; first compound 0.1265 µM): 0.782
- relative viability ([2]; first compound 0.4 µM): 0.516
- relative viability ([2]; first compound 1.265 µM): 0.295
- relative viability ([2]; first compound 4 µM): 0.204
- relative viability ([3]; first compound 0.04 µM): 0.217
- relative viability ([3]; first compound 0.1265 µM): 0.226
- relative viability ([3]; first compound 0.4 µM): 0.208
- relative viability ([3]; first compound 1.265 µM): 0.17
- relative viability ([3]; first compound 4 µM): 0.0936
- relative viability ([4]; first compound 0.04 µM): 0.262
- relative viability ([4]; first compound 0.1265 µM): 0.413
- relative viability ([4]; first compound 0.4 µM): 0.347
- relative viability ([4]; first compound 1.265 µM): 0.15
- relative viability ([4]; first compound 4 µM): 0.0835

Cell Line: NCI-H520
- relative viability ([1]; first compound 0.01 µM): 0.719
- relative viability ([1]; first compound 0.03162 µM): 0.725
- relative viability ([1]; first compound 0.1 µM): 0.708
- relative viability ([1]; first compound 0.3162 µM): 0.608
- relative viability ([1]; first compound 1 µM): 0.484
- relative viability ([2]; first compound 0.04 µM): 0.297
- relative viability ([2]; first compound 0.1265 µM): 0.27
- relative viability ([2]; first compound 0.4 µM): 0.194
- relative viability ([2]; first compound 1.265 µM): 0.283
- relative viability ([2]; first compound 4 µM): 0.129
- relative viability ([3]; first compound 0.04 µM): 0.512
- relative viability ([3]; first compound 0.1265 µM): 0.462
- relative viability ([3]; first compound 0.4 µM): 0.435
- relative viability ([3]; first compound 1.265 µM): 0.158
- relative viability ([3]; first compound 4 µM): 0.192
- relative viability ([4]; first compound 0.04 µM): 0.325
- relative viability ([4]; first compound 0.1265 µM): 0.317
- relative viability ([4]; first compound 0.4 µM): 0.318
- relative viability ([4]; first compound 1.265 µM): 0.146
- relative viability ([4]; first compound 4 µM): 0.189

Cell Line: NCI-H1755
- relative viability ([1]; first compound 0.01 µM): 0.389
- relative viability ([1]; first compound 0.03162 µM): 0.507
- relative viability ([1]; first compound 0.1 µM): 0.427
- relative viability ([1]; first compound 0.3162 µM): 0.399
- relative viability ([1]; first compound 1 µM): 0.488
- relative viability ([2]; first compound 0.04 µM): 0.65
- relative viability ([2]; first compound 0.1265 µM): 0.782
- relative viability ([2]; first compound 0.4 µM): 0.528
- relative viability ([2]; first compound 1.265 µM): 0.354
- relative viability ([2]; first compound 4 µM): 0.302
- relative viability ([3]; first compound 0.04 µM): 0.798
- relative viability ([3]; first compound 0.1265 µM): 0.741
- relative viability ([3]; first compound 0.4 µM): 0.671
- relative viability ([3]; first compound 1.265 µM): 0.644
- relative viability ([3]; first compound 4 µM): 0.316
- relative viability ([4]; first compound 0.04 µM): 0.782
- relative viability ([4]; first compound 0.1265 µM): 0.907
- relative viability ([4]; first compound 0.4 µM): 0.707
- relative viability ([4]; first compound 1.265 µM): 0.585
- relative viability ([4]; first compound 4 µM): 0.23

Cell Line: NCI-H2023
- relative viability ([1]; first compound 0.01 µM): 0.218
- relative viability ([1]; first compound 0.03162 µM): 0.246
- relative viability ([1]; first compound 0.3162 µM): 0.19
- relative viability ([1]; first compound 1 µM): 0.111
- relative viability ([2]; first compound 0.04 µM): 0.484
- relative viability ([2]; first compound 0.1265 µM): 0.382
- relative viability ([2]; first compound 0.4 µM): 0.274
- relative viability ([2]; first compound 1.265 µM): 0.105
- relative viability ([2]; first compound 4 µM): 0.108
- relative viability ([3]; first compound 0.04 µM): 0.262
- relative viability ([3]; first compound 0.1265 µM): 0.222
- relative viability ([3]; first compound 0.4 µM): 0.167
- relative viability ([3]; first compound 1.265 µM): 0.0889
- relative viability ([3]; first compound 4 µM): 0.0963
- relative viability ([4]; first compound 0.04 µM): 0.504
- relative viability ([4]; first compound 0.1265 µM): 0.427
- relative viability ([4]; first compound 0.4 µM): 0.315
- relative viability ([4]; first compound 1.265 µM): 0.0756
- relative viability ([4]; first compound 4 µM): 0.183

Cell Line: NCI-H2009
- relative viability ([1]; first compound 0.01 µM): 1.01
- relative viability ([1]; first compound 0.03162 µM): 1.07
- relative viability ([1]; first compound 0.1 µM): 0.964
- relative viability ([1]; first compound 0.3162 µM): 1.01
- relative viability ([1]; first compound 1 µM): 0.826
- relative viability ([2]; first compound 0.04 µM): 0.703
- relative viability ([2]; first compound 0.1265 µM): 0.564
- relative viability ([2]; first compound 0.4 µM): 0.416
- relative viability ([2]; first compound 1.265 µM): 0.133
- relative viability ([2]; first compound 4 µM): 0.109
- relative viability ([3]; first compound 0.04 µM): 0.374
- relative viability ([3]; first compound 0.1265 µM): 0.408
- relative viability ([3]; first compound 0.4 µM): 0.288
- relative viability ([3]; first compound 1.265 µM): 0.18
- relative viability ([3]; first compound 4 µM): 0.134
- relative viability ([4]; first compound 0.04 µM): 0.625
- relative viability ([4]; first compound 0.1265 µM): 0.694
- relative viability ([4]; first compound 0.4 µM): 0.591
- relative viability ([4]; first compound 1.265 µM): 0.366
- relative viability ([4]; first compound 4 µM): 0.115
